Assay results taken from ChEMBL document CHEMBL1145144, “Structure-based design of cycloamide-urethane-derived novel inhibitors of human brain memapsin 2 (beta-secretase)” (Bioorg Med Chem Lett, 2005).
Values joined by “and” are separate entries in the source; they are usually repeats but may differ in a detail not shown here. Identical values can stand only once.

Legend:
Beta-secretase 1 = Beta-secretase 1 (Homo sapiens, UniProt P56817); experiment: Binding affinity for human brain memapsin 2
Beta-secretase 2 = molecular target: T1, Beta-secretase 2 (Homo sapiens, UniProt Q9Y5Z0); experiment: Binding affinity for human brain memapsin 1
T1 sequence (Q9Y5Z0 whole entry): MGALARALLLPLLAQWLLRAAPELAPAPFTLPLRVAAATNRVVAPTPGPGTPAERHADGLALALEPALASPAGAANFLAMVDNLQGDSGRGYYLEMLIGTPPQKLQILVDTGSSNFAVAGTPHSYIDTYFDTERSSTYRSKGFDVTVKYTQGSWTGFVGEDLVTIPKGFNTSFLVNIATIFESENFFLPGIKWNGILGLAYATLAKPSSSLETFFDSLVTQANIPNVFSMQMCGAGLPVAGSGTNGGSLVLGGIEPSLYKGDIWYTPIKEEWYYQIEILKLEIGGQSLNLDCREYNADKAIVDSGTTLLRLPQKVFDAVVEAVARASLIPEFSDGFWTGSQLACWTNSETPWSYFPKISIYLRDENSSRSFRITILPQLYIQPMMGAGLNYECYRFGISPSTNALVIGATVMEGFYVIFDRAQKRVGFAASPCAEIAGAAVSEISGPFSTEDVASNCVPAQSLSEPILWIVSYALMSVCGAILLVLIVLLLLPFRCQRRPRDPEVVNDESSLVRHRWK

Beta-secretase 1, sequence (P56817 whole entry): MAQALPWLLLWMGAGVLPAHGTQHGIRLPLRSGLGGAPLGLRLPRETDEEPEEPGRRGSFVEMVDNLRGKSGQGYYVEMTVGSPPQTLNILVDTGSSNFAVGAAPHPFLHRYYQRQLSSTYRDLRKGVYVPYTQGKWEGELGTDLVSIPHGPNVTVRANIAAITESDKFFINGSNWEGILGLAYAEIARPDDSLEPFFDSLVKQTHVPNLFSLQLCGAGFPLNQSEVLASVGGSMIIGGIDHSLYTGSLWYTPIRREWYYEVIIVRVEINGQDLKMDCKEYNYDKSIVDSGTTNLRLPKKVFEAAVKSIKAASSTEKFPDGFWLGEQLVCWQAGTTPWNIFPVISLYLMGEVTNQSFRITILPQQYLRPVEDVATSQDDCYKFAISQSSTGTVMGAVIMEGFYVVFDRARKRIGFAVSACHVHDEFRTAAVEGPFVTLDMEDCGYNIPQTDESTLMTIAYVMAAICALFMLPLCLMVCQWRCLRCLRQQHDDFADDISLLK

| SMILES | Ki (Beta-secretase 1) | Ki (Beta-secretase 2) |
| --- | --- | --- |
| CC(C)C[C@H](NC(=O)[C@@H]1CC(=O)NC/C=C/CCCOC(=O)N[C@@H](C(C)C)C(=O)N1)[C@@H](O)C[C@@H](C)C(=O)N[C@H](C(=O)NCc1ccccc1)C(C)C | 14.2 nM and 31 nM | – |
| C=CCCCOC(=O)N[C@H](C(=O)N[C@@H](CC(=O)NCC=C)C(=O)N[C@@H](CC(C)C)[C@@H](O)C[C@@H](C)C(=O)N[C@H](C(=O)NCc1ccccc1)C(C)C)C(C)C | 112 nM | – |
| CC(C)C[C@H](NC(=O)[C@@H]1CC(=O)NC/C=C/COC(=O)N[C@@H](C(C)C)C(=O)N1)[C@@H](O)C[C@@H](C)C(=O)N[C@H](C(=O)NCc1ccccc1)C(C)C | 87.2 nM | – |
| CC(C)C[C@H](NC(=O)[C@@H]1CC(=O)NCCCCOC(=O)N[C@@H](C(C)C)C(=O)N1)[C@@H](O)C[C@@H](C)C(=O)N[C@H](C(=O)NCc1ccccc1)C(C)C | 218 nM | – |
| CC(C)C[C@H](NC(=O)[C@@H]1CC(=O)NCCCCCOC(=O)N[C@@H](C(C)C)C(=O)N1)[C@@H](O)C[C@@H](C)C(=O)N[C@H](C(=O)NCc1ccccc1)C(C)C | 108 nM | – |
| CC(C)C[C@H](NC(=O)[C@@H]1CC(=O)NC/C=C/CCOC(=O)N[C@@H](C(C)C)C(=O)N1)[C@@H](O)C[C@@H](C)C(=O)N[C@H](C(=O)NCc1ccccc1)C(C)C | 28.4 nM | – |
| CC(C)C[C@H](NC(=O)[C@@H]1CC(=O)NCCCCCCOC(=O)N[C@@H](C(C)C)C(=O)N1)[C@@H](O)C[C@@H](C)C(=O)N[C@H](C(=O)NCc1ccccc1)C(C)C | – | 4.5 nM |
| C=CCCOC(=O)N[C@H](C(=O)N[C@@H](CC(=O)NCC=C)C(=O)N[C@@H](CC(C)C)[C@@H](O)C[C@@H](C)C(=O)N[C@H](C(=O)NCc1ccccc1)C(C)C)C(C)C | 61.4 nM | – |
